For one assay, the system named is CML. As to conditions: cited from earlier work.
[1] abbreviates: rs2290573 CC genotype, n = 26, 18-month data, ITT principle.
[2] abbreviates: rs2290573 CT, TT genotype, n = 79, 18-month data, ITT principle.
Setting [3] is: of 54 CML patients treated with 300 mg or more.

Several values for one entry are separate records, joined by “and”; a condition that tells them apart may be missing. Equal entries are not always repeated. Structures can show the parent of a compound that is named as a salt. Where two headings read alike, the source gives them in different places.

For the compound `Cc1ccc(NC(=O)c2ccc(CN3CCN(C)CC3)cc2)cc1Nc1nccc(-c2cccnc2)n1` [Imatinib, Imatinib mesylate], the events of progression in the assay on Ph+ CML (genotyped patients of the Imatinib arm, 18-month data, ITT principle) is on record as 10 events. Further, the “TTP (months)” value in the assay with Ph+ CML (individual patients with disease progression among the 105 analyzed patients, 18-month data, one line per patient, listed as STI571) was 16.1 months and 16.3 months and 11.8 months and 17.0 months and 13.4 months and 16.4 months and 9.7 months and 15.8 months and 5.6 months and 6.8 months. The “individuals who exhibited disease progression” value in the assay with Ph+ CML (out of the entire 553 treated patients, 12-month data) is 24 individuals. Besides, the “patients who experienced progression events” value in the assay with Ph+ CML (rs2290573 CC genotype, 26 patients, 18-month data) worked out at 23.1%. Further, in the assay on Ph+ CML (setting [1]), the “Death (as primary reason for discontinuation)” value is on record as 0 (0) n (%), the “Increase in WBC (approved by SMC)” value was 1 (3.8) n (%), the “Loss of CHR” value was 1 (3.8) n (%) and the “Loss of MCyR” value is 4 (15.4) n (%). In addition, in the assay on Ph+ CML (setting [1]), the “Progression to AP or BC” value was 0 (0) n (%) and the “Total number of patients with events (progression)” value is 6 (23.1) n (%). The “patients who experienced progression events” value in the assay on Ph+ CML (rs2290573 CT or TT genotype, 79 patients, 18-month data) was found to be 5.1%. In the assay on Ph+ CML (setting [2]), the “Death (as primary reason for discontinuation)” value is recorded as 0 (0) n (%), the “Increase in WBC (approved by SMC)” value is 0 (0) n (%), the “Loss of CHR” value is 2 (2.5) n (%) and the “Loss of MCyR” value is 0 (0) n (%). Also, in the assay with Ph+ CML (setting [2]), the “Progression to AP or BC” value was 2 (2.5) n (%) and the “Total number of patients with events (progression)” value was 4 (5.1) n (%). For the same compound, in the assay with CML (% of the 54 patients who received 300 mg or more), the “major responses (0-35% of cells in metaphase positive for the Ph′ chromosome)” value is recorded as 31%. For the same compound, in the assay on CML (setting [3]), the “complete cytogenetic remission (CCR)” value is on record as 7 patients, the “complete hematologic responses (CHR)” value is 53 patients, the cytogenic responses was 29 patients and the “major responses (0-35% of cells in metaphase positive for the Ph′ chromosome)” value is listed as 17 patients.

The record behind these values is US20050164196A1, “Methods to predict patient responsiveness to tyrosine kinase inhibitors” (priority 2002, published 2005).
